{"source": "patent US20260355239A1", "about": "“COMBINATION OF A T CELL THERAPY AND CONTINUOUS OR INTERMITTENT DGK INHIBITOR DOSING” (Juno Therapeutics, Inc., priority 2022, published 2026)", "key": {"CAR-expressing T cells": {"tested_on": "CAR-expressing T cells", "experiment": "Chronic stimulation assay, rescue treatment: tumor cell numbers, spheroid volume and cytokines during re-challenge of chronically stimulated CAR-expressing T cells (FIGS. 7A-8B)", "assay_type": "cell-based, human", "from_the_text": "FIGS. 7A-7B and 8A-8B show cytolytic activity and cytokine production during re-challenge in the presence of Compound 17 of chronically stimulated CAR-expressing T cells (rescue treatment).\nThese observations were made using a chronic stimulation assay to render T cells (e.g. CAR T cells) hypofunctional (e.g. reduced cytolysis and IL-2 secretion). Using this model, engineered T cells (e.g. CAR T cells or eTCR T cells) were examined to assess impact of DGKi, such as Compound 17, on function of the engineered T cells when present during (concurrent) or following (rescue) exposure to conditions leading to a hypofunctional, exhaustive state."}, "Nalm6-rFluc cells": {"tested_on": "Nalm6-rFluc cells", "experiment": "Tumor cell re-challenge after CAR T cell combination, Nalm6-rFluc (Example 11)", "assay_type": "in vivo, NSG mice", "experimental": "Mice in Example 10 who received the CAR T cell combination with continuous Compound 17 dosing regimen were re-challenged by intravenous injection of 5×10^6 Nalm6-rFluc cells on Day 71. For comparison, 5×10^6 Nalm6-rFluc cells were intravenously injected into naive mice that had not previously been injected with or administered Nalm6-rFluc cells, CAR T cells, or Compound 17 (n=4 per group). […] Tumor burden was assessed for 10 days following re-challenge. Survival of treated mice was assessed until 30 days post re-challenge."}, "[1]": {"tested_on": "anti-CD19 CAR-T cells with K562.CD19, Granta-519 and Raji cells", "experiment": "Cytokine production of chronically stimulated, concurrently treated CAR-T cells, 2D co-culture", "assay_type": "cell-based, human", "settings": "concurrent treatment during chronic stimulation; 2D re-challenge, 48 h", "experimental": "To simulate conditions of chronic stimulation, approximately 20,000 anti-CD19 CAR-expressing T cells of a combined CAR-T cell composition produced as described in Example 2 from two healthy adult donors were incubated with 30 µg/mL of plate-bound CAR-specific anti-idiotypic antibody (see, e.g., WO2018/023100) at 37 °C for a period of seven days. During this seven-day period, engineered CAR T cells were concurrently treated with Compound 17(0.1-1000 nM) or a vehicle control added at day 0.\nStimulated CAR T cells were then re-challenged with CD19-expressing tumor cells or tumor spheroids in the absence of Compound 17, and cytolytic activity and cytokine production were assessed.\nTo assess cytolytic function, the stimulated CAR-T cell composition was co-cultured with various CD19-expressing lymphoma cells at a 2.5:1 effector:target ratio. The tumor cells were engineered to express NucLight Red (NLR) and tumor cell number was monitored by Incucyte®. […] Duplicate values for cell compositions manufactured from the two different healthy donors are shown.\nSupernatant was collected after 48 hours from the above co-cultures of chronically stimulated CAR-expressing T cells and CD19-expressing tumor cells. Cytokine production was measured from the supernatant by meso scale discovery (MSD) analysis of the collected cell supernatants. […]"}, "[2]": {"tested_on": "anti-CD19 CAR-T cells with K562.CD19, Granta-519 and Raji cells", "experiment": "Rescue treatment: cytokine production of chronically stimulated CAR-T cells, 2D co-culture", "assay_type": "cell-based, human", "settings": "48 h"}, "anti-CD19 CAR-T cells [3]": {"tested_on": "anti-CD19 CAR-T cells", "experiment": "CAR-T cell proliferation during stimulation (Incucyte)", "assay_type": "cell-based, human", "settings": "30 μg/mL plate-bound anti-idiotypic antibody, seven days", "from_the_text": "(§1) T cell compositions containing T cells expressing an exemplary anti-CD19 CAR were generated from leukapheresis samples from two healthy human adult donors by a process that included immunoaffinity-based selection of T cells by separately selecting CD4+ and CD8+ cells from the samples, resulting in two compositions enriched for CD4+ and CD8+ cells, respectively, per donor. Cells of the enriched CD4+ and CD8+ compositions were separately activated with anti-CD3/anti-CD28 beads and subjected to lentiviral transduction with a vector encoding an anti-CD19 CAR. […]\n(§2) Prior to use, the cryopreserved CD4+ and CD8+ CAR-engineered cell compositions were thawed and combined at approximately a 1:1 CD4:CD8 ratio for each donor to prepare a combined CD4+ CAR+ and CD8+ CAR+ T cell composition. The effects of treatment with Compound 17 at various concentrations (0.1 nM, 1 nM, 10 nM, 100 nM, or 1000 nM) added at day 0 during stimulation of the combined CAR-T cell composition with a plate-bound CAR-specific anti-idiotypic antibody (see, e.g., WO2018/023100) or during co-culture with CD19-expressing cells was then assessed.\nT cell proliferation during stimulation with 30 μg/mL of plate-bound anti-CAR anti-idiotypic antibody in the presence of Compound 17 was monitored for seven days using an Incucyte imaging system. […]"}, "[4]": {"tested_on": "anti-CD19 CAR-T cells with K562.CD19, Granta-519 and Raji cells", "experiment": "CAR-T cell cytokine production in co-culture (MSD)", "assay_type": "cell-based, human"}, "anti-CD19 CAR-T cells [5]": {"tested_on": "anti-CD19 CAR-T cells", "experiment": "CAR-T cell phenotype after acute stimulation (flow cytometry)", "assay_type": "cell-based, human", "from_the_text": "as §1, with “CAR. The anti-CD19 CAR contained an anti-CD19 single-chain variable fragment (scFv) derived from a murine antibody (variable region derived from FMC63), an immunoglobulin-derived spacer, a transmembrane domain derived from CD28, a costimulatory region derived from 4-1BB, and a CD3-zeta intracellular signaling domain.” for “CAR.”\nas §2\nApproximately 20,000 cells of the combined CAR-T cell composition were stimulated with 3 μg/ml or 30 μg/ml plate-bound CAR-specific anti-idiotypic antibody in the presence of Compound 17. After a 48-hour stimulation, T cells were surface stained with antibodies for various activation and differentiation markers and analyzed by flow cytometry for the percent of cells positive for the assessed markers (% positive) and for mean fluorescence intensity (MFI) of expression for the assessed markers. […]"}, "anti-CD19 CAR T cells": {"tested_on": "anti-CD19 CAR T cells", "experiment": "In vivo expansion and/or persistence of CAR T cells from different donors, Raji-rFluc NSG mice (Example 8)", "settings": "0.3 mg/kg oral once daily Days 1-7, four donors, vs CAR T cells alone", "experimental": "The effects of Compound 17 administration on in vivo expansion and/or persistence of CAR T cells produced from different healthy donors were assessed."}, "[6]": {"settings": "48-hour stimulation, 3 or 30 μg/mL CAR-specific anti-idiotypic antibody"}}, "data": [{"smiles": "CC[C@H]1CN([C@@H](CC)c2ccc(C(F)(F)F)cc2)[C@H](CC)CN1c1nc(=O)n(C)c2ccc(C#N)nc12", "note": "[Compound 17, 4-((2S,5R)-2,5-diethyl-4-((S)-1-(4-(trifluoromethyl)phenyl)propyl)piperazin-1-yl)-1-methyl-2-oxo-1,2-dihydropyrido[3,2-d]pyrimidine-6-carbonitrile]", "values": [{"measurement": "recovery of activity of exhausted T cells", "setting": "CAR-expressing T cells; chronically stimulated T cells exhibiting features of exhaustion", "value": "able to recover activity or have their activity restored or partially restored"}, {"measurement": "rescue of T cell function of exhausted T cells", "setting": "CAR-expressing T cells; rescue treatment, later exposure", "value": "could rescue or restore T cell function, including cytokine production and cytolytic activity, of exhausted T cells"}, {"measurement": "survival after re-challenge", "setting": "Nalm6-rFluc cells; re-challenge Day 71 after CAR T + Compound 17, until 30 days post re-challenge", "value": "survival benefit"}, {"measurement": "tumor growth after re-challenge", "setting": "Nalm6-rFluc cells; re-challenge Day 71 after CAR T + Compound 17, vs naive mice", "value": "delayed tumor growth"}, {"measurement": "production of IFNγ, IL-2 and TNFα", "setting": "[1]", "value": "dose-dependent increase in production of all three cytokines"}, {"measurement": "production of IFNγ, IL-2 and TNFα", "setting": "[2]", "value": "dose-dependent increase in production of all three cytokines"}, {"measurement": "T cell proliferation (% confluence)", "setting": "anti-CD19 CAR-T cells [3]", "value": "did not affect T cell proliferation"}, {"measurement": "production of IFNγ, IL-2 and TNFα", "setting": "[4]; 48 h co-culture with K562.CD19, Granta-519, Raji", "value": "dose-dependent increase in production of all three cytokines"}, {"measurement": "cytokine production, particularly IL-2, greatest effect", "setting": "[4]; higher concentrations of Compound 17, Granta-519 cells (low CD19)", "value": "greatest effect during co-culture with Granta-519 cells"}, {"measurement": "expression of CD27 and CD62L", "setting": "anti-CD19 CAR-T cells [5]; [6]", "value": "decreased expression of CD27 and CD62L"}, {"measurement": "expression of CD69 and PD-1", "setting": "anti-CD19 CAR-T cells [5]; [6]", "value": "increased expression of CD69 and PD-1"}, {"measurement": "effect on cell phenotype, dose dependence", "setting": "anti-CD19 CAR-T cells [5]; in particular 30 μg/mL CAR-specific anti-idiotypic antibody", "value": "dose-dependent"}, {"measurement": "CAR T cell expansion and/or persistence", "setting": "anti-CD19 CAR T cells", "value": "CAR T cell expansion and/or persistence was increased in all mice"}]}]}
